Measurements taken from ChEMBL document CHEMBL1141060, “A new synthesis of isoaurones: cytotoxic activity of compounds related to the alleged structure of isoaurostatin” (Bioorg Med Chem Lett, 2005).

System: NCI-H460
Test: Cytotoxic activity against human non-small lung carcinoma cell line H460
Assay type: functional, cell-based

Row | Compound | IC50 [µM]
1 | COc1ccc(/C=C2/C(=O)Oc3ccccc32)cc1O | 9.3
2 | O=C1Oc2ccccc2/C1=C\c1ccc(O)cc1 | 10.1
3 | O=C1Oc2ccccc2/C1=C\c1ccc(OC(=O)c2ccccc2)cc1 | > 30
4 | COc1ccc(/C=C2/C(=O)Oc3ccccc32)cc1 | > 39
5 | COc1cc(/C=C2/C(=O)Oc3ccccc32)cc(OC)c1OC | 37.7
6 | CC(=O)Oc1ccc(/C=C2/C(=O)Oc3ccc(OC(C)=O)cc32)cc1 | > 50
7 | COc1cc(OC)c2c(c1)OC(=O)/C2=C/c1ccc(OC)c(O)c1 | 8.8
